Assays:
FMDV 3Cpro [1] = biological target: T1, FMDV 3Cpro (Foot-and-mouth disease virus A, UniProt A0A097I315); test: biochemical; design: species or system FMDV A/IND287/96 strain (serotype A); conditions: FRET assay (IC50)
FMDV 3Cpro [2] = biological target: T1, FMDV 3Cpro; test: cell-based; design: species or system FMDV A/IND287/96 strain; conditions: Cell-based assay (EC50)
FMDV [3] = conditions: read-out: in vitro potency against FMDV (EC50); cited from earlier work
in vitro = conditions: human
SARS-CoV-2 = conditions: read-out: EC50 against SARS-CoV-2; cited from earlier work
FMDV [4] = conditions: pig, in vivo; cited from earlier work
FMDV [5] = conditions: mouse, in vivo; cited from earlier work
FMDV [6] = conditions: cited from earlier work
FMDV [7] = conditions: cited from earlier work; remark: listed apart in the source

| SMILES | IC50 (FMDV 3Cpro [1]) | EC50 (FMDV 3Cpro [2]) | CC50 (in vitro) | also measured |
| --- | --- | --- | --- | --- |
| CCOC(=O)/C=C/[C@H](C[C@@H]1CCNC1=O)NC(=O)[C@@H](CC(=O)[C@@H](NC(=O)c1cc(C)on1)C(C)C)Cc1ccc(F)cc1 [AG7088, Rupintrivir, reference compound] | 4300 ± 200 nM | 10300 ± 200 nM | > 50000 nM | EC50 (FMDV [3]): 10000 to 20000 nM |
| CC(C)C[C@H](NC(=O)OCC(C)(C)Sc1ccccc1)C(=O)N[C@H](C=O)C[C@@H]1CCNC1=O [Compound D1c] | 1200 ± 710 nM | 1850 ± 350 nM | > 50000 nM | EC50 (SARS-CoV-2): 12 nM |
| CC(C)C[C@H](NC(=O)OCC(C)(C)Sc1ccccc1)C(=O)N[C@@H](C[C@@H]1CCNC1=O)C(O)S(=O)(=O)O (stereo partly drawn) [Compound D1d] | 1010 ± 420 nM | 1500 ± 430 nM | > 50000 nM | EC50 (SARS-CoV-2): 10 nM |
| NC(=O)c1ncc[nH]c1=O [Compound T-1105] |  |  |  | viremia in FMDV-challenged pigs (FMDV [4]): reduced or prevented viremia |
| CCCCOc1nc(N)c2c(n1)N(Cc1cccc(CN3CCCC3)c1)CC(=O)N2 [GS-9620] |  |  |  | survival rate in FMDV-vaccinated and un-vaccinated mice (FMDV [5]): enhanced survival rate |
| O=c1cc(-c2ccc(O)c(O)c2)oc2cc(O)cc(O)c12 [luteolin] |  |  |  | replication of FMDV in cell culture via inhibiting 3Cpro (FMDV [6]): inhibited the replication of FMDV in cell culture |
| Cc1cc(CCCOc2c(C)cc(-c3noc(C(F)(F)F)n3)cc2C)on1 [pleconaril] |  |  |  | in vitro activity against FMDV (EC50) (FMDV [7]): low micromolar to millimolar range |
| O=c1c(O)c(-c2ccc(O)c(O)c2)oc2cc(O)cc(O)c12 [quercetin] |  |  |  | replication of FMDV in cell culture via inhibiting 3Cpro (FMDV [6]): inhibited the replication of FMDV in cell culture |
| NC(=O)c1ncn([C@@H]2O[C@H](CO)[C@@H](O)[C@H]2O)n1 [ribavirin] |  |  |  | in vitro activity against FMDV (EC50) (FMDV [7]): low micromolar to millimolar range |

Reference: publication PMC10986521 (Microbiology Spectrum, 2024)
